The NIST ThermoML archive (doi:10.1016/j.jct.2006.03.021)
± gives the expanded uncertainty stated by the source.

Assay: molar heat capacity at constant pressure
Conditions: 101.33 kPa, Crystal, Vacuum adiabatic calorimetry

O.OC[C@H]1O[C@@H](O[C@H]2O[C@H](CO)[C@@H](O)[C@H](O)[C@H]2O)[C@H](O)[C@@H](O)[C@@H]1O [α,β-trehalose monohydrate]
Conditions	molar heat capacity at constant pressure [J/K/mol]
12.15 K	6.701 ± 0.059
12.87 K	6.35 ± 0.056
13.89 K	7.774 ± 0.072
15 K	9.56 ± 0.09
15.06 K	9.688 ± 0.086
16.13 K	11.54 ± 0.098
17.15 K	13.35 ± 0.11
18.14 K	15.21 ± 0.12
19.1 K	17.06 ± 0.13
20 K	18.85 ± 0.15
20.02 K	18.86 ± 0.14
20.99 K	20.81 ± 0.16
21.98 K	22.87 ± 0.17
22.97 K	24.93 ± 0.18
23.99 K	27.06 ± 0.19
25.09 K	29.37 ± 0.21
26.28 K	31.89 ± 0.22
27.52 K	34.52 ± 0.23
28.79 K	37.22 ± 0.25
30 K	39.76 ± 0.26
30.14 K	40.07 ± 0.26
31.48 K	42.93 ± 0.28
32.83 K	45.73 ± 0.29
34.23 K	48.62 ± 0.31
35.64 K	51.52 ± 0.33
37.04 K	54.43 ± 0.35
38.44 K	57.19 ± 0.36
39.85 K	59.97 ± 0.38
40 K	60.3 ± 0.38
41.25 K	62.71 ± 0.4
42.67 K	65.48 ± 0.41
44.14 K	68.28 ± 0.43
45.66 K	71.1 ± 0.45
47.22 K	74 ± 0.47
48.83 K	76.91 ± 0.48
50 K	78.98 ± 0.5
50.46 K	79.86 ± 0.5
52.14 K	82.8 ± 0.52
53.84 K	85.77 ± 0.54
55.55 K	88.73 ± 0.56
56.47 K	90.18 ± 0.56
58.33 K	93.36 ± 0.58
60 K	96.14 ± 0.6
60.17 K	96.48 ± 0.6
62 K	99.53 ± 0.62
63.81 K	102.56 ± 0.64
65.62 K	105.58 ± 0.66
67.43 K	108.53 ± 0.68
69.25 K	111.51 ± 0.7
70 K	112.73 ± 0.7
71.08 K	114.46 ± 0.71
72.92 K	117.44 ± 0.73
74.76 K	120.43 ± 0.75
76.6 K	123.41 ± 0.77
78.42 K	126.41 ± 0.79
80 K	128.94 ± 0.8
80.24 K	129.3 ± 0.8
82.05 K	132.24 ± 0.82
83.88 K	135.15 ± 0.84
85.74 K	138.11 ± 0.86
87.62 K	141.12 ± 0.88
89.52 K	144.11 ± 0.9
90 K	144.87 ± 0.9
91.42 K	147.15 ± 0.92
93.33 K	150.17 ± 0.93
95.28 K	153.24 ± 0.95
97.28 K	156.4 ± 0.97
99.29 K	159.5 ± 0.99
100 K	160.59 ± 0.41
101.26 K	162.58 ± 0.42
103.21 K	165.61 ± 0.42
105.12 K	168.61 ± 0.43
107.01 K	171.53 ± 0.43
108.87 K	174.41 ± 0.44
110 K	176.15 ± 0.44
110.71 K	177.24 ± 0.44
112.52 K	180.05 ± 0.45
114.31 K	182.82 ± 0.46
116.08 K	185.5 ± 0.46
117.84 K	188.16 ± 0.47
119.57 K	190.8 ± 0.47
120 K	191.54 ± 0.47
121.29 K	193.41 ± 0.48
122.99 K	196.08 ± 0.48
124.68 K	198.72 ± 0.49
126.4 K	201.25 ± 0.49
128.14 K	203.9 ± 0.5
129.89 K	206.59 ± 0.5
130 K	206.76 ± 0.5
131.7 K	209.4 ± 0.51
133.54 K	212.03 ± 0.52
135.4 K	214.95 ± 0.52
137.31 K	217.83 ± 0.53
139.29 K	220.87 ± 0.53
140 K	221.8 ± 0.54
141.32 K	223.89 ± 0.54
